Values quoted from earlier work, collected in US7723036B2, “Assessing response to anti-CD20 therapy by genotyping C1q components” (The University of Iowa Research Foundation, priority 2005, dated 2010).
Counter-ions that a name gives are not always drawn.

Experiments:
[1] = in vivo
[2] = in vivo; remark: listed apart in the source
[3] = oral radioactive lomustine 30 mg/m^2 to 100 mg/m^2; within 24 hours

Row | oral absorption (in words) [1] | administered dose recovered in the feces after biliary excretion [2] | SMILES | radioactivity given excreted in the form of degradation products [3]
1 | Unpredictable absorption | – | CC[C@]1(O)C[C@H]2CN(CCc3c([nH]c4ccccc34)[C@@](C(=O)OC)(c3cc4c(cc3OC)N(C=O)[C@H]3[C@@](O)(C(=O)OC)[C@H](OC(C)=O)[C@]5(CC)C=CCN6CC[C@]43[C@@H]65)C2)C1 [Vincristine] | –
2 | Unpredictable absorption | about 10% | CC[C@]1(O)C[C@@H]2CN(CCc3c([nH]c4ccccc34)[C@@](C(=O)OC)(c3cc4c(cc3OC)N(C)[C@H]3[C@@](O)(C(=O)OC)[C@H](OC(C)=O)[C@]5(CC)C=CCN6CC[C@]43[C@@H]65)C2)C1 [Vinblastine] | –
3 | absorbed poorly | – | COc1cccc2c1C(=O)c1c(O)c3c(c(O)c1C2=O)C[C@@](O)(C(=O)CO)C[C@@H]3O[C@H]1C[C@H](N)[C@H](O)[C@H](C)O1 [Doxorubicin, 5,12-Naphthacenedione, (8s-cis)-10-((3-amino-2,3,6-trideoxy-a-L-lyxo-hexopyranosyl)oxy)-7,8,9,10-tetrahydro-6,8,11-trihydroxy-8-(hydroxyacetyl)-1-methoxy-hydrochloride] | –
4 | poor | – | COc1cccc2c1C(=O)c1c(O)c3c(c(O)c1C2=O)C[C@@](O)(C(C)=O)C[C@@H]3O[C@H]1C[C@H](N)[C@H](O)[C@H](C)O1 [Daunorubicin, 5,12-Naphthacenedione, (8S-cis)-8-acetyl-10-((3-amino-2,3,6-trideoxy-a-L-lyxo-hexanopyranosyl)oxy)-7,8,9,10-tetrahydro-6,8,11-trihydroxy-10-methoxy-, hydrochloride] | –
5 | – | – | O=NN(CCCl)C(=O)NC1CCCCC1 [Lomustine, 1-(2-chloro-ethyl)-3-cyclohexyl-1 nitrosourea] | about half

Row | SMILES | oral absorption (in words) [1] | administered dose recovered in the feces after biliary excretion [2] | radioactivity given excreted in the form of degradation products [3]
6 | O=C(O)CCCc1ccc(N(CCCl)CCCl)cc1 [Chlorambucil, 4-(bis(2-chlorethyl)amino) benzenebutanoic acid] | rapidly and completely absorbed | – | –
7 | N.N.[Cl][Pt][Cl] [Cisplatin] | not absorbed orally | – | –
